Read-outs that look alike come from different tables or passages of the source.
What was measured:
[1] = tested on: CD11b; assay: Human whole blood CD11b up-regulation assay; format: cell-based; settings: 2 nM human C5a, CD15+ granulocytes, read-out: hCD11b IC50
In short: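 Heparinized human whole blood (used within 2 h) preincubated 10 min at room temperature with compound in 1% DMSO, then stimulated with 2 nM human C5a for 15 min. After anti-CD15/anti-CD11b staining on ice and RBC lysis, CD11b median fluorescence on 10,000 CD15+ granulocytes measured by flow cytometry.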

[2] = biological target: human C5aR (Homo sapiens (Human), UniProt P21730); assay: FLIPR assay: inhibition of C5a-mediated calcium mobilization; format: cell-based; settings: stable cell line over expressing human C5aR & Gα15, human C5a at EC50 (0.1-0.25 nM)
human C5aR, sequence (P21730 whole entry): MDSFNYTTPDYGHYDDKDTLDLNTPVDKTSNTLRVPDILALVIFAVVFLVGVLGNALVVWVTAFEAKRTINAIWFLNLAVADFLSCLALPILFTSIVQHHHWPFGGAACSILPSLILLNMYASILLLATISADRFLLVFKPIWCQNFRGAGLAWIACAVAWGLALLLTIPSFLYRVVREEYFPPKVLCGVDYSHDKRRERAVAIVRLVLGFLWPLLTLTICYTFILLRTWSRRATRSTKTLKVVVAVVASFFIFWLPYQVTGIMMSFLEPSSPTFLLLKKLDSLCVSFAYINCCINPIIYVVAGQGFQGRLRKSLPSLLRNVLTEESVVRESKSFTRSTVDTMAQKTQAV
In short: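 Stable cell line overexpressing human C5aR with Gα15, measured on FLIPR Tetra. Cells loaded 1 h at 37° C with calcium 5 dye and 2.5 mM probenecid in HBSS/20 mM HEPES/0.1% BSA. Compounds preincubated 30 minutes at room temperature in 1% DMSO before C5a.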

Structure (SMILES)	IC50 ([1]; Homo sapiens) [nM]	IC50 [2] [nM]	IC50 [1] [nM]
COc1nc(-c2c(C)ccc3[nH]nc(C)c23)nc2c1CN(c1cc(C(C)C)ccc1C)CC2 [Example 31-I, 2-(3,5-dimethyl-1H-indazol-4-yl)-6-(5-isopropyl-2-methylphenyl)-4-methoxy-5,6,7,8-tetrahydropyrido[4,3-d]pyrimidine]	18	9	
COc1nc(-c2c(C)ccc3[nH]nc(Cl)c23)nc2c1CN(c1cc(C(C)C)ccc1C)CC2 [Example 32-A, 2-(3-Chloro-5-methyl-1H-indazol-4-yl)-6-(5-isopropyl-2-methylphenyl)-4-methoxy-5,6,7,8 tetrahydropyrido[4,3-d]pyrimidine]	63	6	
CO[C@H]1CCN(c2nc(-c3c(C)ccc4[nH]nc(Cl)c34)nc3c2CN(c2cc(C(C)C)ccc2C)CC3)CC1(C)C [Example 32-B, (S)-2-(3-Chloro-5-methyl-1H-indazol-4-yl)-6-(5-isopropyl-2-methylphenyl)-4-(4-methoxy-3,3-dimethylpiperidin-1-yl)-5,6,7,8-tetrahydropyrido[4,3-d]pyrimidine]	24	2	
Cc1ccc(C(C)C)cc1N1CCc2nc(-c3cccc4[nH]cc(C)c34)cc(C)c2C1 [Example 40-D, 6-(5-Isopropyl-2-methylphenyl)-4-methyl-2-(3-methyl-1H-indol-4-yl)-5,6,7,8-tetrahydro-1,6-naphthyridine]		132	264
CCc1cccc(CC)c1-c1cc(C)c2c(n1)CCN(c1cc(C3CC3)ccc1C)C2 [Example 40-M, 6-(5-cyclopropyl-2-methylphenyl)-2-(2,6-diethylphenyl)-4-methyl-5,6,7,8-tetrahydro-1,6-naphthyridine]	69	11	
[2H]C1([2H])c2c(C)cc(-c3cccc4[nH]cc(C)c34)nc2CCN1c1cc(C(C)C)ccc1C [Example 40-S]	793	78	
Cc1ccc(C(C)C)cc1N1CCc2nc(-c3c(C(C)C)ccc4[nH]ncc34)cc(C)c2C1 [Example 41-G, 2-(5-isopropyl-1H-indazol-4-yl)-6-(5-isopropyl-2-methylphenyl)-4-methyl-5,6,7,8-tetrahydro-1,6-naphthyridine]	70	3	
CCc1cccc(CC)c1-c1cc(C)c2c(n1)CCN(c1cc(C(C)C)ccc1C)C2 [Example 41-J, 2-(2,6-diethylphenyl)-6-(5-isopropyl-2-methylphenyl)-4-methyl-5,6,7,8-tetrahydro-1,6-naphthyridine]	302	22	
[2H]C1([2H])c2c(C)cc(-c3c(CC)cccc3CC)nc2CCN1c1c(Cl)c(C2CC2)nn1C [Example 42-I, 6-(4-chloro-3-cyclopropyl-1-methyl-1H-pyrazol-5-yl)-2-(2,6-diethylphenyl)-4-methyl-5,6,7,8-tetrahydro(5,5-^2H2)-1,6-naphthyridine]	2120	14	
[2H]C1([2H])c2c(C)cc(-c3cccc4[nH]cc(C)c34)nc2CCN1c1c(C)cccc1C [Example 44-E, 6-(2,6-dimethylphenyl)-4-methyl-2-(3-methyl-1H-indol-4-yl)-5,6,7,8-(5,5-^2H2)tetrahydro-1,6-naphthyridine]	188	38	
[2H]C1([2H])c2c(C)cc(-c3c(C)ccc4[nH]ncc34)nc2CCN1c1cc(OC)ccc1C [Example 45, 6-(5-Methoxy-2-methylphenyl)-4-methyl-2-(5-methyl-1H-indazol-4-yl)-5,6,7,8-tetrahydro(5,5-^2H2)-1,6-naphthyridine]	583	27	
Cc1cc(-c2c(C(C)C)ccc3[nH]ncc23)nc2c1CN(c1cc(C3CC3)nn1C)CC2 [Example 46-A, 6-(3-Cyclopropyl-1-methyl-1H-pyrazol-5-yl)-2-(5-isopropyl-1H-indazol-4-yl)-4-methyl-5,6,7,8-tetrahydro-1,6-naphthyridine]	1990	20	
Cc1cc(-c2c(C(C)C)ccc3[nH]ncc23)nc2c1CN(c1c(Cl)c(C3CC3)nn1C)CC2 [Example 46-B, 6-(4-Chloro-3-cyclopropyl-1-methyl-1H-pyrazol-5-yl)-2-(5-isopropyl-1H-indazol-4-yl)-4-methyl-5,6,7,8-tetrahydro-1,6-naphthyridine]	224	42	
[2H]C1([2H])c2c(C)cc(-c3cccc4[nH]cc(C)c34)nc2CCN1c1c(C)nn(CC)c1C [Example 47-B, 6-(1-Ethyl-3,5-dimethyl-1H-pyrazol-4-yl)-4-methyl-2-(3-methyl-1H-indol-4-yl)-5,6,7,8-tetrahydro(5,5-^2H2)-1,6-naphthyridine]	1420	56	
Cc1ccc(C(C)C)cc1N1CCc2nc(-c3cccc4[nH]cc(C)c34)nc(N3CCN(CC(N)=O)C[C@H]3C)c2C1 [Example 52-C, (R)-2-(4-(6-(5-Isopropyl-2-methylphenyl)-2-(3-methyl-1H-indol-4-yl)-5,6,7,8-tetrahydropyrido[4,3-d]pyrimidin-4-yl)-3-methylpiperazin-1-yl)acetamide]	178	1	
CO[C@H]1CCN(c2nc(-c3c(C)ccc4[nH]nc(C)c34)nc3c2CN(c2c(Cl)c(C4CC4)nn2C)CC3)CC1(C)C [Example 55-L, (S)-6-(4-Chloro-3-cyclopropyl-1-methyl-1H-pyrazol-5-yl)-2-(3,5-dimethyl-1H-indazol-4-yl)-4-(4-methoxy-3,3-dimethylpiperidin-1-yl)-5,6,7,8-tetrahydropyrido[4,3-d]pyrimidine]	36	3	
CO[C@@H]1CCN(c2nc(-c3c(C)ccc4[nH]nc(C)c34)nc3c2CN(c2c(Cl)c(C4CC4)nn2C)CC3)[C@H](C)C1 [Example 55-M, 6-(4-chloro-3-cyclopropyl-1-methyl-1H-pyrazol-5-yl)-2-(3,5-dimethyl-1H-indazol-4-yl)-4-((2R,4R)-4-methoxy-2-methylpiperidin-1-yl)-5,6,7,8-tetrahydropyrido[4,3-d]pyrimidine]	15	1	
CO[C@@H]1CCN(c2nc(-c3c(C)ccc4[nH]nc(C)c34)nc3c2CN(c2c(Cl)c(C(F)(F)F)nn2C)CC3)CC1(C)C [Example 55-N, (R)-6-(4-chloro-1-methyl-3-(trifluoromethyl)-1H-pyrazol-5-yl)-2-(3,5-dimethyl-1H-indazol-4-yl)-4-(4-methoxy-3,3-dimethylpiperidin-1-yl)-5,6,7,8-tetrahydropyrido[4,3-d]pyrimidine]	12	6	
CO[C@H]1C[C@H]2CC[C@@H](C1)N2c1nc(-c2c(C)ccc3[nH]nc(C)c23)nc2c1CN(c1c(F)c(C3CC3)nn1C)CC2 [Example 56-B]	45	2	
CO[C@H]1CCN(c2nc(-c3c(C)ccc4[nH]nc(C)c34)nc3c2CN(c2c(F)c(C4CC4)nn2C)CC3)CC1(C)C [Example 56-C, (S)-6-(3-cyclopropyl-4-fluoro-1-methyl-1H-pyrazol-5-yl)-2-(3,5-dimethyl-1H-indazol-4-yl)-4-(4-methoxy-3,3-dimethylpiperidin-1-yl)-5,6,7,8-tetrahydropyrido[4,3-d]pyrimidine]	6	1	

Reference: patent publication US8846656B2, “Tetrahydropyrido-pyridine and tetrahydropyrido-pyrimidine compounds and use thereof as C5a receptor modulators” (Novartis AG, priority 2011, dated 2014)
